In publication PMC10127945 (Nature chemical biology, 2022):

Key:
TMPRSS2 = TMPRSS2 (Homo sapiens, UniProt O15393); test: Biotin-switch assay for SNO-TMPRSS2; format: cell-based; details: 100 μM SNOC, 20 minutes, HeLa-ACE2 cells
[1] = Stability in aqueous solution; format: physicochemical; details: neutral pH
[2] = molecular target: ACE2/SARS-CoV-2 Spike protein binding (Homo sapiens, UniProt Q9BYF1); format: cell-based
SARS-CoV-2 Spike protein = SARS-CoV-2 Spike protein (Severe acute respiratory syndrome coronavirus 2, UniProt P0DTC2); format: biochemical
ACE2 = ACE2 (Homo sapiens, UniProt Q9BYF1); test: Biotin-switch assay for SNO-ACE2 in HeLa-ACE2 cells; format: cell-based; details: 100 μM SNOC
Chain of ACE2 (Q9BYF1 18-805): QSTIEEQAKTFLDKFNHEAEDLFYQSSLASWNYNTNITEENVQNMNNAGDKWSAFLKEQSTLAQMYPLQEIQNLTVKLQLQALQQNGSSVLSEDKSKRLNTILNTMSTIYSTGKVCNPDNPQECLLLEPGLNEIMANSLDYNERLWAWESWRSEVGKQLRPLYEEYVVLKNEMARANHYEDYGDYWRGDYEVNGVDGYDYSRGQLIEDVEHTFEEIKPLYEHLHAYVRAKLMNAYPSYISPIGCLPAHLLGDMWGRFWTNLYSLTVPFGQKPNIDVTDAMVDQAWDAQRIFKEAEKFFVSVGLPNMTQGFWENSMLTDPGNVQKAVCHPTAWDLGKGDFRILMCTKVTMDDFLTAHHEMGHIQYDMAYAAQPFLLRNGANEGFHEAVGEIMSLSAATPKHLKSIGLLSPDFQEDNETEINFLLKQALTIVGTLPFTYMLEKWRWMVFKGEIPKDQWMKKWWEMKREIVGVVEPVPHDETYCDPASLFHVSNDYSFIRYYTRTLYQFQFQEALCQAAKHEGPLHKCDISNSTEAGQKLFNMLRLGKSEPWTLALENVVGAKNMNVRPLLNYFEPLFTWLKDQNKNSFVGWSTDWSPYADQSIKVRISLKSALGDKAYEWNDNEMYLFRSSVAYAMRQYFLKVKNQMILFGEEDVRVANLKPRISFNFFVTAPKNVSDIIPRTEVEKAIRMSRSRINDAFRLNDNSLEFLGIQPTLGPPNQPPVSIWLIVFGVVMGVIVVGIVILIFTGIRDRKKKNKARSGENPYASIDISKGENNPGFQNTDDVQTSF

SARS-CoV-2 = format: cell-based, SARS-CoV-2 (USA-WA1/2020)
[3] = molecular target: SARS-CoV-2 envelope (E) protein viroporin ion channel (Severe acute respiratory syndrome coronavirus 2, UniProt P0DTC4); format: cell-based
Chain of SARS-CoV-2 envelope (E) protein viroporin ion channel (P0DTC4 whole entry): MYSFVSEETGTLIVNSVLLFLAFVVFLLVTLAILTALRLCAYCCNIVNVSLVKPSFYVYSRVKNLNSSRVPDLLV

Chain of ACE2/SARS-CoV-2 Spike protein binding (Q9BYF1 18-805 limits assumed): as the sequence (Q9BYF1 18-805) above
Chain of TMPRSS2 (O15393 whole entry): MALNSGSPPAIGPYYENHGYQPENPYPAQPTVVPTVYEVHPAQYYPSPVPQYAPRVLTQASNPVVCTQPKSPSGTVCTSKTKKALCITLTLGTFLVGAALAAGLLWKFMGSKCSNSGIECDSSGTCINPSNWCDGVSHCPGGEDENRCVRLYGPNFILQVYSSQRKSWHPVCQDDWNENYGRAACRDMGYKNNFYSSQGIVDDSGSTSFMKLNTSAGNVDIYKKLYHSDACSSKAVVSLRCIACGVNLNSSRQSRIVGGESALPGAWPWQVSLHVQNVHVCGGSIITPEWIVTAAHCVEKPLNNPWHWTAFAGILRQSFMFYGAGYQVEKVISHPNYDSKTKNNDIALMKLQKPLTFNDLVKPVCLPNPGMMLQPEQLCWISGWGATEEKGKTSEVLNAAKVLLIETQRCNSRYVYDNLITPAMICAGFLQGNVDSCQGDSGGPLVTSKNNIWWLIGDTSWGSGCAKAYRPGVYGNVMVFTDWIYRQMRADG

Question: For S-nitrosocysteine [SNOC], which “S-nitrosylation of TMPRSS2” value (TMPRSS2) is on record?
Answer: could be S-nitrosylated

Question: What about the “time for NO to dissipate” value [1] of the same molecule?
Answer: < 5 min

Question: What about the “binding of purified S protein to HeLa-ACE2 cells” value [2] of the same molecule?
Answer: significantly decreased binding

Question: And the “S-nitrosylation of Spike protein” value (SARS-CoV-2 Spike protein)?
Answer: Lack of S-nitrosylation

Question: What about the “stability (persistence) of SNO-ACE2 formation” value (ACE2) of the same molecule?
Answer: at least 12 h

Question: And the “S-nitrosylation of ACE2” value (ACE2; 20 minutes)?
Answer: could be S-nitrosylated

Question: Which “efficacy against live SARS-CoV-2 infection” value (SARS-CoV-2) does the source give for `NC12CC3CC(CC(C3)C1)C2` [amantadine] here?
Answer: no efficacy

Question: For `CC12CC3CC(C)(C1)CC(N)(C3)C2` [memantine], which “efficacy against live SARS-CoV-2 infection” value (SARS-CoV-2) is on record?
Answer: no efficacy

Question: And the “inhibition of E protein voltage-dependent K+ current” value [3]?
Answer: inhibited
